Data: publication PMC3856564 (Angewandte Chemie (International ed. in English), 2013)

Experiments:
PARP1 = PARP1 (Homo sapiens, UniProt P09874); test: surface plasmon resonance; assay type: binding
[1] = molecular target: topoisomerase (DNA) II alpha (TOP2A) (Homo sapiens, UniProt P11388); test: surface plasmon resonance; assay type: binding
Chain of topoisomerase (DNA) II alpha (TOP2A) (P11388 whole entry): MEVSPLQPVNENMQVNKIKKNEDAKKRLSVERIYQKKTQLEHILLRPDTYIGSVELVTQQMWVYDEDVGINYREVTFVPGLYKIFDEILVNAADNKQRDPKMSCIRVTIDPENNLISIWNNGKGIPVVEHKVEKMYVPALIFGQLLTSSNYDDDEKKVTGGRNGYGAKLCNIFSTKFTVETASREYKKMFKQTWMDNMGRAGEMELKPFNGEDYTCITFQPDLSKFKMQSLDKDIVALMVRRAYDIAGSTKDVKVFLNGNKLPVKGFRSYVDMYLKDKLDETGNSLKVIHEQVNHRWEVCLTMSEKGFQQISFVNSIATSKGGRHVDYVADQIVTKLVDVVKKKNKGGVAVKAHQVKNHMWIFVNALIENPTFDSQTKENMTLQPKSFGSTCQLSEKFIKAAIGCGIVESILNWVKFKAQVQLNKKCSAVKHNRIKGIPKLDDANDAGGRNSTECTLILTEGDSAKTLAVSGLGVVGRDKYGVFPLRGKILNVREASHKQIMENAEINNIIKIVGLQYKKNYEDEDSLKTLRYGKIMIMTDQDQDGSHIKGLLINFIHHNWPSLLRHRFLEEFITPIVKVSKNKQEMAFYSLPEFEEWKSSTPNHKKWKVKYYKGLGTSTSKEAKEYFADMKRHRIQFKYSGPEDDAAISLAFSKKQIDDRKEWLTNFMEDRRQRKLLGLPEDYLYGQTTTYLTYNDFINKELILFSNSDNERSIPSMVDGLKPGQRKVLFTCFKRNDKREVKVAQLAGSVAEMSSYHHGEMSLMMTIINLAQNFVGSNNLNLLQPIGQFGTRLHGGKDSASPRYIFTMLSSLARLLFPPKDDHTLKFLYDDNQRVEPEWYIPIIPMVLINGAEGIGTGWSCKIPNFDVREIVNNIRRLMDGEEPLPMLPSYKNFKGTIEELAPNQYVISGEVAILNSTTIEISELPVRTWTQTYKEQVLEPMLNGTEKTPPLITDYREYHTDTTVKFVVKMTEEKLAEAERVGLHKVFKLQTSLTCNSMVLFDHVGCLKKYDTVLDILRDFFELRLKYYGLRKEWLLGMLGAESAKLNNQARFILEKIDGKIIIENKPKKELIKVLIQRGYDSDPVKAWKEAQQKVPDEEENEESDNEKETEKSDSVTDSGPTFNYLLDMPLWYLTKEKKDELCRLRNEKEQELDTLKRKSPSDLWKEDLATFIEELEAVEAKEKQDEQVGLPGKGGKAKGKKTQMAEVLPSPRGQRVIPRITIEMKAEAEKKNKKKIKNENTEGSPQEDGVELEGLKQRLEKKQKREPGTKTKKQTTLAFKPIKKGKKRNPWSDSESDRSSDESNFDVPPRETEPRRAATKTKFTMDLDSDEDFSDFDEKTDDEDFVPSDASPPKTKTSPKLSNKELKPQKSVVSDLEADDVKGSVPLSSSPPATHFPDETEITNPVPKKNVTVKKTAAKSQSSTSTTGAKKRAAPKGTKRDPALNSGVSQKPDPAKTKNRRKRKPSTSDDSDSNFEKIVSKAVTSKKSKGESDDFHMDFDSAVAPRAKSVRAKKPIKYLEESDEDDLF

Chain of PARP1 (P09874 2-1014): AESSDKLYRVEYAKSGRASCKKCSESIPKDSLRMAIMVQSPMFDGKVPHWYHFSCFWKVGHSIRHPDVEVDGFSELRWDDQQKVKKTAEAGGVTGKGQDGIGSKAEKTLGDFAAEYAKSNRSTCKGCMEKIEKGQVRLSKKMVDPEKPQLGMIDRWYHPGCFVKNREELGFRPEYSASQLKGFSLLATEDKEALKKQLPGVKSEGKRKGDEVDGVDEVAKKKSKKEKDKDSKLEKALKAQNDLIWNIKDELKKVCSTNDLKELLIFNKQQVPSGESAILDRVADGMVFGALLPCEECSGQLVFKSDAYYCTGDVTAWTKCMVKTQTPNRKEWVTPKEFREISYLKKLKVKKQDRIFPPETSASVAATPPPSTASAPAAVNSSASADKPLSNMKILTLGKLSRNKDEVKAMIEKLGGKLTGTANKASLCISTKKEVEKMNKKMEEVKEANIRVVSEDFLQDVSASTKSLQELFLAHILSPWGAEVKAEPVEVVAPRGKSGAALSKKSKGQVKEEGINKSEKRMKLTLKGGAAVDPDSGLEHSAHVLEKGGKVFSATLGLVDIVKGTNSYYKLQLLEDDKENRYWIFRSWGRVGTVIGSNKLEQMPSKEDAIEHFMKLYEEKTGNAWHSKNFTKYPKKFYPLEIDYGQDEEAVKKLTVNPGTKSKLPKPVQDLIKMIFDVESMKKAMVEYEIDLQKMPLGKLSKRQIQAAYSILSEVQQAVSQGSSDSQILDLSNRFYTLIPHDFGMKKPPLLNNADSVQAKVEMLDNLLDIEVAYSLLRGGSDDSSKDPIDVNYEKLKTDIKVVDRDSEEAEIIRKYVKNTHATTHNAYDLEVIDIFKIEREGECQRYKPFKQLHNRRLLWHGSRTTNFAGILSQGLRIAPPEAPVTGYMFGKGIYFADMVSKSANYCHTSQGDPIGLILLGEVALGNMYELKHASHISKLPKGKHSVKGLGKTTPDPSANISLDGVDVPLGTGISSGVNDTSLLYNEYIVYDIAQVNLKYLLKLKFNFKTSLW

Olaparib-TCO
Kd (PARP1): 22 nM
Kd [1]: ~3.7 nM
